US12668568B2, “Adamantanyl-substituted benzamide compounds and their use as P2X7 receptor antagonists” (The University of Sydney, priority 2018, dated 2026)

Assays:
[1] = Brain tissue binding, rapid equilibrium dialysis; assay type: in vitro ADME; settings: rat brain tissue, 4 hours 37° C., read-out: pb (% bound) Brain (converted)
Protocol: Determining the extent to which a molecule binds to factors present within plasma and brain is a critical phase of drug development as this determines not only the free unbound fraction available to exert the desired pharmacological actions but also influences dosing, clearance rate and the potential for drug-drug interactions. Binding is measured with the rapid equilibrium dialysis technique using cartridges consisting of two compartments (sample and buffer chamber) separated by a dialysis membrane.
All compounds are prepared in 100% DMSO to provide 10 mM stock solutions. Sample material is prepared by spiking a known volume of plasma or brain with the stock solution such that the final concentration of compound is 1 μM. This is placed in the sample chamber of the dialysis cartridge. Dialysis buffer is then added to the buffer chamber and the cartridge incubated at 37° C. for 4 hours. Following the incubation the test compound concentrations are determined in the two chambers and the % free or bound component calculated using the equation below:
[formula] [formula] In Vivo Pharmacokinetic Studies

[2] = Lipophilicity: Log D7.4 determined by HPLC method; assay type: physicochemical; settings: for lipophilicity compared with compound 31: HPLC logD7.4; for logD7.4 / chromatographic logD: HPLC retention time, 65 v/v % methanol in 50 mM sodium phosphate buffer pH 7.4; for chromatographic logD: reversed-phase HPLC, Waters Sunfire C18 5 µm column, read-out: logD7.4
Protocol: Lipophilicity of the compounds was evaluated by an experimentally derived Log D7.4 value determined by a HPLC method.^1 It is preferred that the lipophilicity of the compounds is as low as possible.
High Performance Liquid Chromatography was performed on a Waters 2695 Separations module equipped with the Waters Alliance Series Column Heater (set at 30° C.) and Waters 2996 Photodiode Array (PDA) Detector. […] Standards and samples were dissolved in the elution solvent mixture and then filtered prior to injection. Data acquisition and processing was performed with the Waters Empower 2 software and Microsoft Excel™ was used for data analysis. All standards and samples were analyzed in triplicate.
. An […] curve was obtained (FIG. 1) which was fitted to the equation [Log D7.4=0.8342(RET)+1.7393] with an R^2 of 0.97.
The RET from three injections was averaged with the log D7.4 value extrapolated from the equation found in FIG. 1.

CYP2D6 = biological target: T1, CYP2D6 (Homo sapiens, UniProt P10635); test: Cytochrome profiling CYP2D6 (baculosomes); assay type: in vitro ADME; settings: probe fluorogenic probe substrate (not named), 10 μM substrate
T1 construct: host or cells: insect cells infected with recombinant baculovirus (microsomes)
T1 sequence (P10635 whole entry): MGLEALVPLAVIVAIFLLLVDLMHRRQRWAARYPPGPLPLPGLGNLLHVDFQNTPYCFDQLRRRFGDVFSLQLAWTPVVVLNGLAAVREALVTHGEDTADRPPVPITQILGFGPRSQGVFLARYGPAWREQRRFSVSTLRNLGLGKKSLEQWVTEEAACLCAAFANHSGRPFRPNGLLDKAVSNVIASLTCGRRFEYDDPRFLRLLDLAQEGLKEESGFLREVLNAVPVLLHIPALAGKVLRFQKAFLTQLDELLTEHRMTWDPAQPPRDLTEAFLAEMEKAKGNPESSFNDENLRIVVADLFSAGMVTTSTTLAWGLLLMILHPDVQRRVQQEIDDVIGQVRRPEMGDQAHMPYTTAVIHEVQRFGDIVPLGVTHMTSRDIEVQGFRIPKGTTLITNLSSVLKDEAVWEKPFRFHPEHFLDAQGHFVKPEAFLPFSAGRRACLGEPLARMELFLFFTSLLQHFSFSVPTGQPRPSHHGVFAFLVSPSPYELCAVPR
Text: Cytochrome P450 (abbreviated CYP, P450 or CYP450) belong to very large and diverse superfamily of haemoproteins which accept both exogenous and endogenous compounds as substrates in enzymatic reactions and play a major role in drug metabolism. Although this class has more than 50 enzymes just 5 of them (CYP1A2, CYP2C9, CYP2C19, CYP2D6 and CYP3A4) are able to metabolise almost 90% of all drugs. Inhibition of these enzymes is one of the major reasons for drug-drug interactions. Consequently, detailed CYP inhibition profiles are a regulatory requirement for all new drugs. Inhibition potencies against the five most relevant CYP isoforms is performed using baculosomes; microsomes prepared from insect cells infected with recombinant baculovirus containing cDNA for a specific human P450 isozyme. The baculosomes are incubated with drug at a concentration of 1 μM in the presence of a probe substrate for 60 minutes at 37° C. The probe is normally metabolised by the baculosomes to produce a fluorescent metabolite. A substrate drug will compete for the isozyme and reduce the metabolism of the probe resulting in a decrease in the fluorescent signal. The percent inhibition due to the presence of the test compound is calculated using the following equation: [formula] • X=fluorescent intensity observed in the presence of test compound • A=fluorescent intensity observed in control • B=fluorescent intensity observed in the presence of the probe control

hP2X7R = biological target: T2, hP2X7R (Homo sapiens, UniProt Q99572); test: Yo-Pro uptake assay for P2X7R pore formation in THP-1 cells; assay type: cell-based; set-up: Following an overnight incubation (16 h) required for THP-1 differentiation; endogenous in cells; host or cells: THP-1 (ATCC), differentiated with LPS and IFN-gamma; settings: for IC50: THP-1 cells, BzATP 100 μM, YO-PRO-1, mean ± standard deviation, n >4, read-out: Dye uptake IC50 hP2X7R; for LLE: pIC50 from dye uptake and LogD from HPLC
T2 sequence (Q99572 1-595): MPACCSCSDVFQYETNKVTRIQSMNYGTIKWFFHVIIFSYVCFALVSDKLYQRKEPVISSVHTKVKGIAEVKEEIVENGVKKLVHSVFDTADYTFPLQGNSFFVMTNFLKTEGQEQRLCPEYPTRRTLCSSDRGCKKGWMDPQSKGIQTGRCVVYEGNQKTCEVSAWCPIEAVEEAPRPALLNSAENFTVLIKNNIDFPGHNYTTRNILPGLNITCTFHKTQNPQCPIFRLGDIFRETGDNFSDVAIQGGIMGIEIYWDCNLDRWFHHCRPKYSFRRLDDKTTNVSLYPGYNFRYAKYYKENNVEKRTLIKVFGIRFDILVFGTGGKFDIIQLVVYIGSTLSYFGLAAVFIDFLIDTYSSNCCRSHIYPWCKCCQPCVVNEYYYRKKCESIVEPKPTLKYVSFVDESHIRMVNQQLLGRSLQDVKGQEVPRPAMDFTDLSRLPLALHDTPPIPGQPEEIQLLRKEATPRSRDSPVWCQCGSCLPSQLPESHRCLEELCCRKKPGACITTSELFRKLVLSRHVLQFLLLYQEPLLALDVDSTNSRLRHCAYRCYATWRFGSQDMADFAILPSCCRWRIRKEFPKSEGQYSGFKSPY
Protocol: HEK293T cells transfected with cDNA for the human (HEK-hP2X7) or mouse P2X7 (HEK-mP2X7) receptor (a kind gift from Dr Leanne Stokes and Prof. Jim Wiley) were cultured in DMEM/F12 with 10% FBS and 500 μg/mL G418 (all from Invitrogen). Cells were cultured in 75 cm^2 flasks and incubated at 37° C. in a 5% CO2 humidified atmosphere, maintained in log phase of growth and passaged when cell density reached 1×10^6 cells/mL (every 2-3 days).^3
P2X7R pore formation was assessed by agonist-induced uptake of the Yo-Pro-1 iodide dye. […] Final treatments (in triplicate) were made up in phosphate buffered saline (PBS), without divalent cations, containing PRO®-1 dye (2 μM). Cells were washed once in pre-warmed PBS and treatments were added to cells, with or without 2′(3′)-O-(4-benzoylbenzoyl)adenosine 5′-triphosphate (BzATP, 100 μM) as agonist. Dye uptake was measured at 37° C. using a fluorescence plate reader (BMG Labtech); with data read at λEx485nm/λEm520nm at 30 sec intervals over a 70 min period. […] IC50 values were determined from concentration-response curves derived from a four-parameter variable slope, analyzed in GraphPad Prism® (San Diego, CA).

Row | Compound | fraction unbound at 4 h, 1 μM [1] | lipophilicity compared with compound 31 [2] | logD7.4 [2] | chromatographic logD [2] | inhibition at 60 min, 1 μM (CYP2D6) [%] | IC50 (hP2X7R) [nM] | LLE (hP2X7R)
1 | COc1ccc(Cl)c(C(=O)NCC23CC4(F)CC(F)(CC(F)(C4)C2)C3)c1 [Compound 1, 2-Chloro-N-((3,5,7-trifluoroadamantan-1-yl)methyl)-5-methoxybenzamide] | 0.0549 | less lipophilic than compound 31 | 2.83 | 2.83 | -29.1 | – | –
2 | COc1ccc(Cl)c(C(=O)NCC23CC4CC(F)(CC(F)(C4)C2)C3)c1 [Compound 2, 2-Chloro-N-((3,5-difluoroadamantan-1-yl)methyl)-5-methoxybenzamide] | 0.085 | less lipophilic than compound 31 | 2.85 | 2.85 | -25.3 | 30.9 ± 8 | 4.66
3 | COc1ccc(Cl)c(C(=O)NCC23CC4CC(CC(F)(C4)C2)C3)c1 [Compound 3, 2-Chloro-N-((3-fluoroadamantan-1-yl)methyl)-5-methoxybenzamide] | 0.0309 | less lipophilic than compound 31 | 3.27 | 3.27 | -28.9 | 25.1 ± 2.7 | 4.33
4 | COc1ccc(Cl)c(C(=O)NCC23CC4CC(CC(C4)C2)C3)c1 [Compound 31, reference compound] | 0.0027 | – | 4.23 | 4.23 | -47.3 | 10.5 ± 3.1 | 3.75
